Data on 33 molecules can be found in patent US7659404B2, “Broad spectrum 2-(substituted-amino)-benzothiazole sulfonamide HIV protease inhibitors” (Tibotec Pharmaceuticals Ltd., priority 2001, dated 2010).

One assay relates to virus strain F (R13025). Put plainly: microbe, parasite or virus in culture. Format: cell-based, HIV. Particulars: for EC50: Human immunodeficiency virus 1, MT4, read-out: HIV-AVE-MT4-MTT-R13025-2-002 pEC50, virus strain F (R13025), MT4 cells, MTT (converted); for HIV-AVE-MT4-MTT-R13025-2-002 pEC50: virus strain F (R13025), MT4 cells. As for the experimental part:
(§1) HIV- or mock-infected MT4 cells were incubated for five days in the presence of various concentrations of the inhibitor. […] Cell viability is measured by measuring the concentration of MTT, a yellow, water soluble tetrazolium dye that is converted to a purple, water insoluble formazan in the mitochondria of living cells only. Upon solubilization of the resulting formazan crystals with isopropanol, the absorbance of the solution is monitored at 540 nm. The values correlate directly to the number of living cells remaining in the culture at the completion of the five day incubation. The inhibitory activity of the compound was monitored on the virus-infected cells and was expressed as EC50 and EC90. These values represent the amount of the compound required to protect 50% and 90%, respectively, of the cells from the cytopathogenic effect of the virus. The toxicity of the compound was measured on the mock-infected cells and was expressed as CC50, which represents the concentration of compound required to inhibit the growth of the cells by 50%. The selectivity index (SI) (ratio CC50/EC50) is an indication of the selectivity of the anti-HIV activity of the inhibitor.
(§2) Because of the increasing emergence of drug resistant HIV strains, the present compounds were tested for their potency against clinically isolated HIV strains harboring several mutations.
(§3) As a measure of the broad spectrum activity of the present compounds, the fold resistance (FR) defined as FR=EC50(mutant strain)/EC50(HIV-1 strain LAI).

In the next assay the test system is virus strain S (R13080). The assay can be described thus: microbe, parasite or virus in culture. Format: cell-based, HIV. Particulars: for EC50: Human immunodeficiency virus 1, MT4, read-out: HIV-AVE-MT4-MTT-R13080-2-002 pEC50, virus strain S (R13080), MT4 cells, MTT (converted); for HIV-AVE-MT4-MTT-R13080-2-002 pEC50: virus strain S (R13080), MT4 cells. As to the method: as §1, §2, §3

In a further assay the test system is wild type virus (IIIB). Put plainly: HIV-AVE-MT4-MTT cellular assay, wild type virus (IIIB). Particulars: MT4 cells, MTT; for EC50: Human immunodeficiency virus 1, IIIB, MT4, wild type virus (IIIB), read-out: HIV-AVE-MT4-MTT-IIIB-2-002 pEC50 (converted); for HIV-AVE-MT4-MTT-IIIB-2-002 pEC50: wild type virus (IIIB). Format: cell-based. As to the method:
HIV- or mock-infected MT4 cells were incubated for five days in the presence of various concentrations of the inhibitor. At the end of the incubation period, all HIV-infected cells have been killed by the replicating virus in the control cultures in the absence of any inhibitor. Cell viability is measured by measuring the concentration of MTT, a yellow, water soluble tetrazolium dye that is converted to a purple, water insoluble formazan in the mitochondria of living cells only. Upon solubilization of the resulting formazan crystals with isopropanol, the absorbance of the solution is monitored at 540 nm. The values correlate directly to the number of living cells remaining in the culture at the completion of the five day incubation. The inhibitory activity of the compound was monitored on the virus-infected cells and was expressed as EC50 and EC90. These values represent the amount of the compound required to protect 50% and 90%, respectively, of the cells from the cytopathogenic effect of the virus. The toxicity of the compound was measured on the mock-infected cells and was expressed as CC50, which represents the concentration of compound required to inhibit the growth of the cells by 50%. The selectivity index (SI) (ratio CC50/EC50) is an indication of the selectivity of the anti-HIV activity of the inhibitor.
(Tetrazolium dyes change colour on reduction, which living cells bring about.)

As to `CC(C)CN(C[C@@H](O)[C@H](Cc1ccccc1)NC(=O)O[C@H]1CO[C@H]2OCC[C@H]21)S(=O)(=O)c1ccc2nc(NCCN)sc2c1` [Compound 185], the EC50 is 0.0331 µM with virus strain F (R13025), 0.0347 µM with virus strain S (R13080) and 0.0457 µM with wild type virus (IIIB). The like results for `Cc1cccc(C)c1OCC(=O)N[C@@H](Cc1ccccc1)[C@H](O)CN(CC(C)C)S(=O)(=O)c1ccc2nc(NC(=O)c3ccncc3)sc2c1` [Compound 125] were, in that order, 0.0269 µM, 0.145 µM and 0.00631 µM. The like results for `CC(C)CN(C[C@@H](O)[C@H](Cc1ccccc1)NC(=O)C(NC(=O)CNCc1cccc(F)c1)C(C)(C)C)S(=O)(=O)c1ccc2nc(NCCCN(C)C)sc2c1` (stereo partly drawn) [Compound 188] were, in that order, 0.0933 µM, 0.132 µM and 0.2 µM. As to `CC(C)CN(C[C@@H](O)[C@H](Cc1ccccc1)NC(=O)OCc1cncs1)S(=O)(=O)c1ccc2nc(NC(=O)c3ccno3)sc2c1` [Compound 172], the EC50 was 0.245 µM with virus strain F (R13025), 0.813 µM with virus strain S (R13080) and 0.0427 µM in the assay on wild type virus (IIIB). As for `CC(=O)Nc1nc2ccc(S(=O)(=O)N(CC(C)C)C[C@@H](O)[C@H](Cc3ccccc3)NC(=O)COc3c(C)cc([N+](=O)[O-])cc3C)cc2s1` [Compound 104], in the assay with wild type virus (IIIB), the EC50 was 0.0661 µM.

In the case of `CC(C)CN(C[C@@H](O)[C@H](Cc1ccccc1)NC(=O)OCc1cncs1)S(=O)(=O)c1ccc2nc(NC(=O)CN3CCNCC3)sc2c1` [Compound 155], the EC50 with virus strain F (R13025) was 0.0245 µM; with wild type virus (IIIB), 0.0427 µM. Further, in the assay on virus strain S (R13080), the “HIV-AVE-MT4-MTT-R13080-2-002 pEC50” value turned out to be 7.49.

On to `CNCCNc1nc2ccc(S(=O)(=O)N(CC(C)C)C[C@@H](O)[C@H](Cc3ccccc3)NC(=O)OCc3cncs3)cc2s1` [Compound 150], for which the EC50 in the assay with virus strain F (R13025) is 0.162 µM; in the assay on virus strain S (R13080) it was 0.661 µM; in the assay with wild type virus (IIIB) it was 0.0427 µM. Turning to `CC(C)CN(C[C@@H](O)[C@H](Cc1ccccc1)NC(=O)OC(C)(C)C)S(=O)(=O)c1ccc2nc(N(C)CCCN3CCCC3)sc2c1` [Compound 124], in the assay on wild type virus (IIIB), the EC50 is 2 µM. For the molecule `CC(C)CN(C[C@@H](O)[C@H](Cc1ccccc1)NC(=O)OCc1cncs1)S(=O)(=O)c1ccc2nc(NC(=O)C3CCC(=O)N3)sc2c1` (stereo partly drawn) [Compound 161], the EC50 was 0.0174 µM in the assay on virus strain F (R13025), 0.0339 µM in the assay with virus strain S (R13080) and 0.00912 µM with wild type virus (IIIB). For the molecule `Cc1cccc(C)c1OCC(=O)N[C@@H](Cc1ccccc1)[C@H](O)CN(CC(C)C)S(=O)(=O)c1ccc2nc(NCc3ccccn3)sc2c1` [Compound 129], in the assay with wild type virus (IIIB), the EC50 is 0.0631 µM.

Consider `Cc1cccc(C)c1OCC(=O)N[C@@H](Cc1ccccc1)[C@H](O)CN(CC(C)C)S(=O)(=O)c1ccc2nc(NC(=O)C3CC(=O)N(Cc4ccco4)C3)sc2c1` (stereo partly drawn) [Compound 114], for which the values for the EC50 in the assay with virus strain F (R13025), with virus strain S (R13080) and in the assay on wild type virus (IIIB) were 0.0339 µM, 0.141 µM and 0.0204 µM, respectively. For the molecule `CC(C)CN(C[C@@H](O)[C@H](Cc1ccccc1)NC(=O)OCc1cncs1)S(=O)(=O)c1ccc2nc(NC(=O)c3ccoc3)sc2c1` [Compound 164], the EC50 in the assay with virus strain F (R13025) is 0.0339 µM; in the assay with virus strain S (R13080) it was 0.158 µM; with wild type virus (IIIB), 0.00708 µM. As for `Cc1cccc(C)c1OCC(=O)N[C@@H](Cc1ccccc1)[C@H](O)CN(CC(C)C)S(=O)(=O)c1ccc2nc(NCc3cccnc3)sc2c1` [Compound 130], the EC50 with wild type virus (IIIB) is 0.0589 µM. Regarding `CC(C)CN(C[C@@H](O)[C@H](Cc1ccccc1)NC(=O)OC(C)(C)C)S(=O)(=O)c1ccc2nc(NCc3ccccn3)sc2c1` [Compound 119], the “HIV-AVE-MT4-MTT-IIIB-2-002 pEC50” value in the assay on wild type virus (IIIB) stood at 6.48. As to `CC(C)CN(C[C@@H](O)[C@H](Cc1ccccc1)NC(=O)OCc1cncs1)S(=O)(=O)c1ccc2nc(N(C)C(=O)CN(C)C)sc2c1` [Compound 176], the “HIV-AVE-MT4-MTT-R13025-2-002 pEC50” value in the assay with virus strain F (R13025) is listed as 7.2. Also, the “HIV-AVE-MT4-MTT-R13080-2-002 pEC50” value in the assay on virus strain S (R13080) is 6.65. The “HIV-AVE-MT4-MTT-IIIB-2-002 pEC50” value in the assay on wild type virus (IIIB) is 8.39. Turning to `CC(C)CN(C[C@@H](O)[C@H](Cc1ccccc1)NC(=O)OC(C)(C)C)S(=O)(=O)c1ccc2nc(N(C)CCN3CCCC3)sc2c1` [Compound 123], the EC50 in the assay with wild type virus (IIIB) was 1.58 µM.

Regarding `Cc1cccc(C)c1OCC(=O)N[C@@H](Cc1ccccc1)[C@H](O)CN(CC(C)C)S(=O)(=O)c1ccc2nc(NCCc3ccccn3)sc2c1` [Compound 132], the EC50 in the assay on wild type virus (IIIB) was 0.0646 µM. Take `CC(C)CN(C[C@@H](O)[C@H](Cc1ccccc1)NC(=O)C(NC(=O)CNCc1cccc(F)c1)C(C)(C)C)S(=O)(=O)c1ccc2nc(NCCN3CCCC3)sc2c1` (stereo partly drawn) [Compound 189]: the EC50 is 0.102 µM in the assay on virus strain F (R13025), 0.138 µM in the assay on virus strain S (R13080) and 0.0447 µM with wild type virus (IIIB). Turning to `CC(C)CN(C[C@@H](O)[C@H](Cc1ccccc1)NC(=O)OC(C)(C)C)S(=O)(=O)c1ccc2nc(N3CCC[C@@H]3C(=O)O)sc2c1` [Compound 142], in the assay on wild type virus (IIIB), the EC50 was 5.62 µM. Turning to `Cc1cccc(C)c1OCC(=O)N[C@@H](Cc1ccccc1)[C@H](O)CN(CC(C)C)S(=O)(=O)c1ccc2nc(NC(=O)c3ccccn3)sc2c1` [Compound 140], the “HIV-AVE-MT4-MTT-R13025-2-002 pEC50” value in the assay on virus strain F (R13025) is recorded as 8.12. Besides, the “HIV-AVE-MT4-MTT-IIIB-2-002 pEC50” value with wild type virus (IIIB) is 8.34. For the molecule `CC(C)CN(C[C@@H](O)[C@H](Cc1ccccc1)NC(=O)[C@@H](NC(=O)CNCc1cccc(F)c1)C(C)(C)C)S(=O)(=O)c1ccc2nc(NCCN3CCCC3)sc2c1.O=C(O)C(F)(F)F.O=C(O)C(F)(F)F` [Compound 85, N′-[(3-fluorophenyl)methyl]glycyl-N-[(1S,2R)-2-hydroxy-3-[(2-methylpropyl)[[2-[2-(pyrrolidin-1-yl)ethylamino]benzothiazol-6-yl]sulfonyl]amino]-1-(phenylmethyl)propyl]-3-methyl-L-Valinamide, bis-trifluoroacetate], the “HIV-AVE-MT4-MTT-IIIB-2-002 pEC50” value in the assay on wild type virus (IIIB) was 7.24. On to `CC(C)CN(C[C@@H](O)[C@H](Cc1ccccc1)NC(=O)O[C@@H]1COC2OCCNC21)S(=O)(=O)c1ccc2nc(NCCN3CCCC3)sc2c1` (stereo partly drawn) [Compound 101], for which the EC50 with wild type virus (IIIB) is 0.24 µM. Same read-out and setting: the result for `COC(=O)CCNc1nc2ccc(S(=O)(=O)N(CC(C)C)C[C@@H](O)[C@H](Cc3ccccc3)NC(=O)COc3c(C)cccc3C)cc2s1` [Compound 135] reads 0.0661 µM; that for `CC(C)CN(C[C@@H](O)[C@H](Cc1ccccc1)NC(=O)OCc1cncs1)S(=O)(=O)c1ccc2nc(NCCN(C)C(=O)OC(C)(C)C)sc2c1` [Compound 149], 0.0513 µM. In the case of `Cc1cccc(C)c1OCC(=O)N[C@@H](Cc1ccccc1)[C@H](O)CN(CC(C)C)S(=O)(=O)c1ccc2nc(N(C)CCCN3CCCC3)sc2c1` [Compound 138], the EC50 in the assay on wild type virus (IIIB) is 1.45 µM. As for `Cc1cccc(C)c1OCC(=O)N[C@@H](Cc1ccccc1)[C@H](O)CN(CC(C)C)S(=O)(=O)c1ccc2nc(NCC3CCCO3)sc2c1` (stereo partly drawn) [Compound 134], the EC50 in the assay with wild type virus (IIIB) was 0.0617 µM. With `CC(C)CN(C[C@@H](O)[C@H](Cc1ccccc1)NC(=O)OC(C)(C)C)S(=O)(=O)c1ccc2nc(NCCc3ccccn3)sc2c1` [Compound 120], the EC50 in the assay on wild type virus (IIIB) was 0.316 µM. Take `CC(C)CN(C[C@@H](O)[C@H](Cc1ccccc1)NC(=O)OC(C)(C)C)S(=O)(=O)c1ccc2nc(N3CCOCC3)sc2c1` [Compound 122]: the EC50 in the assay on wild type virus (IIIB) was 1.2 µM.

As for `Cc1cccc(C)c1OCC(=O)N[C@@H](Cc1ccccc1)[C@H](O)CN(CC(C)C)S(=O)(=O)c1ccc2nc(N(C)CCCN(C)C)sc2c1` [Compound 109], the EC50 with virus strain F (R13025) is 4.17 µM; in the assay on wild type virus (IIIB), 2.09 µM.

In the case of `Cc1cccc(C)c1OCC(=O)N[C@@H](Cc1ccccc1)[C@H](O)CN(CC(C)C)S(=O)(=O)c1ccc2nc(N(C)CCN3CCOCC3)sc2c1` [Compound 137], the EC50 in the assay on wild type virus (IIIB) was 1.7 µM. For `Cc1cccc(C)c1OCC(=O)N[C@@H](Cc1ccccc1)[C@H](O)CN(CC(C)C)S(=O)(=O)c1ccc2nc(N3CCOCC3)sc2c1` [Compound 136], the EC50 in the assay on wild type virus (IIIB) was 0.724 µM. Turning to `Cc1cccc(C)c1OCC(=O)N[C@@H](Cc1ccccc1)[C@@H](CN(CC(C)C)S(=O)(=O)c1ccc2nc(NC(=O)c3ccccc3)sc2c1)OC(=O)c1ccncc1` [Compound 147], the EC50 in the assay on wild type virus (IIIB) was 0.339 µM. In the case of `CC(C)CN(C[C@@H](O)[C@H](Cc1ccccc1)NC(=O)OC(C)(C)C)S(=O)(=O)c1ccc2nc(NCc3ccccn3)sc2c1` [Compound 118], in the assay with wild type virus (IIIB), the EC50 was 0.302 µM.
